# Laboratory results published in US7368232B2, “High-throughput assay for virus entry and drug screening” (priority 2003, dated 2008).
# Legend:
# [1] = test system: Friend MLV containing env-luc1; type: cell-based, Friend murine leukemia virus
# [2] = test system: VSV-G pseudotyped virus containing env-luc1; type: cell-based, vesicular stomatitis virus
# [3] = test system: Rabies env pseudotyped virus; type: cell-based
# [4] = test system: Ebola env pseudotyped virus; type: cell-based
# [5] = test system: VSV env pseudotyped virus; type: cell-based, Vesicular Stomatitis Virus
# [6] = test system: MLV env pseudotyped virus; type: cell-based, murine leukemia virus
# [7] = test system: VSV-G pseudotyped virus; type: cell-based, vesicular stomatitis virus
Compound,effect on luciferase entry signal [1],effect on luciferase entry signal [2],effect on luciferase activities in the viral entry assay [3],effect on entry of Ebola virus env pseudotyped particles [4],effect on luciferase activities in the viral entry assay [5],effect on luciferase activities in the viral entry assay [6],reduction of infection (β-galactosidase infection assay) [7],decrease of luciferase entry signal [2]
Cl.N [ammonium chloride],only weakly affected,inhibited the signal,completely inhibit,significantly inhibited,completely inhibit,–,–,–
CO/C1=C\C(C)=C\[C@@H](C)[C@@H](O)[C@@H](C)C/C(C)=C/C=C/[C@H](OC)[C@@H]([C@@H](C)[C@@H](O)[C@H](C)[C@@]2(O)C[C@@H](O)[C@H](C)[C@@H](C(C)C)O2)OC1=O [bafilomycin A1],only weakly affected,inhibited the signal,completely inhibit,significantly inhibited,completely inhibit,little effect,100 fold,–
CCN(CC)CCCC(C)Nc1ccnc2cc(Cl)ccc12 (stereo not shown) [chloroquine],only weakly affected,inhibited the signal,–,–,–,–,20 fold,7 fold
